Patent US20200179392A1, “Idelalisib for Treating Proliferative Vitreoretinopathy and Abnormal Intraocular Neovascularization” (priority 2016, published 2020)

Tested on: RPEM cells
Test: Collagen contraction assay, RPEM cells with vitreous
Assay type: cell-based, human
Details: idelalisib 5 μM, 48 hours
Protocol: 3D. The RPEM cells were re-suspended in 1.5 mg/ml of neutralized collagen I at a density of 1×10^6 cells/ml and seeded into wells of a 24-well plate. The solidified gels were overlaid with either DMEM/F12 alone (-), or RV supplemented with idelalisib (5 μM) or its vehicle as indicated. After 48 hours the gel diameter was measured and the gel area were calculated. A photograph of a representative experiment is shown at the bottom of the bar graphs. The mean±standard deviation (SD) of three independent experiments is shown; * denotes […]<0.05 using an unpaired t-test. RPEM cells were re-suspended in 1.5 mg/ml of neutralized collagen […], Fremont, Calif.) (pH 7.2) at ice at a density 1×10^6 cells/ml^24, 54. The mixture was transferred into wells of 24-well plates that had been preincubated overnight with 5 mg/ml bovine serum albumin/PBS. After the collagen had polymerized at 37° C. for 90 minutes, 0.5 ml DMEM/F12 or RV (1:2 dilution in DMEM/F12) with or without idelalisib (5 μM) was added. On day 3, the gel diameter was measured and the gel area was calculated using a formula 3.14×r^2, where r is the radius of the gel. At least three independent experiments were performed^24, 55.

CC[C@H](Nc1ncnc2[nH]cnc12)c1nc2cccc(F)c2c(=O)n1-c1ccccc1 [idelalisib] was tested, and the “effect on vitreous-induced collagen contraction of RPEM cells” value was “completely blocked”.
